From patent US7132504B2, “Hepatitis C virus inhibitors” (Bristol-Myers Squibb Company, priority 2003, dated 2006)

Columns and labels:
[1] = test system: HCV replicon in Huh7 cells; test: HCV replicon cell-based assay (FRET); design: species or system HCV strain 1b; conditions: Hepatitis C virus, Huh-7, 96 h, 4 days, read-out: Activity Range EC50
Text: An HCV replicon whole cell system was established as described by Lohmann V, Korner F, Koch J, Herian U, Theilmann L, Bartenschlager R., Science 285(5424):110–3 (1999). This system enabled us to evaluate the effects of our HCV Protease compounds on HCV RNA replication. Briefly, using the HCV strain 1b sequence described in the Lohmann paper (Assession number:AJ238799), an HCV cDNA was generated encoding the 5′ internal ribosome entry site (IRES), the neomycin resistance gene, the EMCV (encephalomyocarditis viurs)-IRES and the HCV nonstructural proteins, NS3–NS5B, and 3′ non-translated region (NTR). In vitro transcripts of the cDNA were transfected into the human hepatoma cell line, Huh7. […] Resulting cell lines were characterized for positive and negative strand RNA production and protein production over time.
Huh7 cells, constitutively expressing the HCV replicon, were grown in Dulbecco's Modified Eagle Media (DMEM) containing 10% Fetal calf serum (FCS) and 1 mg/ml G418 (Gibco-BRL). Cells were seeded the night before (1.5×10^4 cells/well) in 96-well tissue-culture sterile plates. Compound and no compound controls were prepared in DMEM containing 4% FCS, 1:100 Penicillin/Streptomysin, 1:100 L-glutamine and 5% DMSO in the dilution plate (0.5% DMSO final concentration in the assay). Compound/DMSO mixes were added to the cells and incubated for 4 days at 37° C. After 4 days, plates were rinsed thoroughly with Phosphate-Buffered Saline (PBS) (3 times 150 μl). The cells were lysed with 25 μl of a lysis assay reagent containing the FRET peptide (RET S1, as described for the in vitro enzyme assay). The lysis assay reagent was made from 5× cell Luciferase cell culture lysis reagent (Promega #E153A) diluted to 1× with distilled water, NaCl added to 150 mM final, the FRET peptide diluted to 10 μM final from a 2 mM stock in 100% DMSO. The plate was then placed into the Cytofluor 4000 instrument which had been set to 340 nm excitation/490 nm emission, automatic mode for 21 cycles and the plate read in a kinetic mode. EC50 determinations were carried out as described for the IC50 determinations. […]
The percentage inhibition was calculated using the formula below: […]
The values were graphed and analyzed using XLFit to obtain the EC50 value.

[2] = target: T1, HCV NS3/4A protease complex (UniProt P27958, C1454S/C1711G, species not given); test: Recombinant HCV NS3/4A protease complex FRET peptide assay (strain not stated); assay type: biochemical; conditions: NS3/4A protease enzyme assay, read-out: Activity Range IC50
T1 construct: fused on or other part: Three-lysine solubilising tail at the C-terminus of NS4A
Text: The purpose of this in vitro assay was to measure the inhibition of HCV NS3 protease complexes, derived from the BMS strain, H77 strain or J416S strain, as described below, by compounds of the present invention. This assay provides an indication of how effective compounds of the present invention would be in inhibiting HCV proteolytic activity.
Serum from an HCV-infected patient was obtained from Dr. T. Wright, San Francisco Hospital. An engineered full-length cDNA (compliment deoxyribonucleic acid) template of the HCV genome (BMS strain) was constructed from DNA fragments obtained by reverse transcription-PCR (RT-PCR) of serum RNA (ribonucleic acid) and using primers selected on the basis of homology between other genotype 1a strains. From the determination of the entire genome sequence, a genotype 1a was assigned to the HCV isolate according to the classification of Simmonds et al. (See P Simmonds, K A Rose, S Graham, S W Chan, F McOmish, B C Dow, E A Follett, P L Yap and H Marsden, J. Clin. Microbiol., 31(6), 1493–1503 (1993)). […] The infectious clones, H77 (1a genotype) and J4L6S (1b genotype) were obtained from R. Purcell (NIH) and the sequences are published in Genbank (AAB67036, see Yanagi, M., Purcell, R. H., Emerson, S. U. and Bukh, J. Proc. Natl. Acad. Sci. U.S.A. 94(16), 8738–8743 (1997); AF054247, see Yanagi, M., St Claire, M., Shapiro, M., Emerson, S. U., Purcell, R. H. and Bukh, J, Virology 244 (1), 161–172. (1998)).
The H77 and J4L6S strains were used for production of recombinant NS3/4A protease complexes. DNA encoding the recombinant HCV NS3/4A protease complex (amino acids 1027 to 1711) for these strains were manipulated as described by P. Gallinari et al. (see Gallinari P, Paolini C, Brennan D, Nardi C, Steinkuhler C, De Francesco R. Biochemistry. 38(17):5620–32, (1999)). Briefly, a three-lysine solubilizing tail was added at the 3′-end of the NS4A coding region. The cysteine in the P1 position of the NS4A–NS4B cleavage site (amino acid 1711) was changed to a glycine to avoid the proteolytic cleavage of the lysine tag. Furthermore, a cysteine to serine mutation was introduced by PCR at amino acid position 1454 to prevent the autolytic cleavage in the NS3 helicase domain. The variant DNA fragment was cloned in the pET21b bacterial expression vector (Novagen) and the NS3/4A complex was expressed in Escherichia. coli strain BL21 (DE3) (Invitrogen) following the protocol described by P. Gallinari et al. (see Gallinari P, Brennan D, Nardi C, Brunetti M, Tomei L, Steinkuhler C, De Francesco R., J Virol. 72(8):6758–69 (1998)) with modifications. Briefly, the NS3/4A protease complex expression was induced with 0.5 millimolar (mM) Isopropyl β-D-1-thiogalactopyranoside (IPTG) for 22 hours (h) at 20° C. A typical fermentation (1 Liter (L)) yielded approximately 10 grams (g) of wet cell paste. The cells were resuspended in lysis buffer (10 mL/g) consisting of 25 mM N-(2-Hydroxyethyl)Piperazine-N′-(2-Ethane Sulfonic acid) (HEPES), pH 7.5, 20% glycerol, 500 mM Sodium Chloride (NaCl), 0.5% Triton X-100, 1 microgram/milliliter (“μg/mL”) lysozyme, 5 mM Magnesium Chloride (MgCl2), 1 μg/ml Dnasel, 5 mM β-Mercaptoethanol (βME), Protease inhibitor—Ethylenediamine Tetraacetic acid (EDTA) free (Roche), homogenized and incubated for 20 minutes (min) at 4° C. The homogenate was sonicated and clarified by ultra-centrifugation at 235000 g for 1 h at 4° C. Imidazole was added to the supernatant to a final concentration of 15 mM and the pH adjusted to 8.0. The crude protein extract was loaded on a Nickel—Nitrilotriacetic acid (Ni-NTA) column pre-equilibrated with buffer B (25 mM HEPES, pH 8.0, 20% glycerol, 500 mM NaCl, 0.5% Triton X-100, 15 mM imidazole, 5 mM βME). The sample was loaded at a flow rate of 1 mL/min. The column was washed with 15 column volumes of buffer C (same as buffer B except with 0.2% Triton X-100). The protein was eluted with 5 column volumes of buffer D (same as buffer C except with 200 mM Imidazole). […]

Compound	EC50 [1]	IC50 [2]
C=CC1CC1(NC(=O)[C@@H]1C[C@@H](Oc2cc(-c3ccccc3)nc3cc(OC)ccc23)CN1C(=O)[C@@H](NC(=O)OC)C(C)(C)C)C(=O)NS(=O)(=O)N1CCCC1 (mixture of isomers) [Compound 8]	150 to 1500 nM	< 150 nM
C=CC1C[C@]1(NC(=O)[C@@H]1C[C@@H](Oc2cc(-c3ccccc3)nc3cc(OC)ccc23)CN1C(=O)[C@@H](NC(=O)OC)C(C)(C)C)C(=O)NS(=O)(=O)N(C)CC (stereo partly drawn) [Compound 1]	< 150 nM	< 150 nM
C=CC1C[C@]1(NC(=O)[C@@H]1C[C@@H](Oc2cc(-c3ccccc3)nc3cc(OC)ccc23)CN1C(=O)[C@@H](NC(=O)OC)C(C)(C)C)C(=O)NS(=O)(=O)N(C)OC (stereo partly drawn) [Compound 2]	150 to 1500 nM	< 150 nM
C=CC1C[C@]1(NC(=O)[C@@H]1C[C@@H](Oc2cc(-c3ccccc3)nc3cc(OC)ccc23)CN1C(=O)[C@@H](NC(=O)OC)C(C)(C)C)C(=O)NS(=O)(=O)N(C)C (stereo partly drawn) [Compound 3]	< 150 nM	< 150 nM
C=CC1C[C@]1(NC(=O)[C@@H]1C[C@@H](Oc2cc(-c3ccccc3)nc3cc(OC)ccc23)CN1C(=O)[C@@H](NC(=O)OC)C(C)(C)C)C(=O)NS(=O)(=O)N1CCC1 (stereo partly drawn) [Compound 4]	150 to 1500 nM	< 150 nM
C=CC1C[C@]1(NC(=O)[C@@H]1C[C@@H](Oc2cc(-c3ccccc3)nc3cc(OC)ccc23)CN1C(=O)[C@@H](NC(=O)OC)C(C)(C)C)C(=O)NS(=O)(=O)N(C)c1ccccc1 (stereo partly drawn) [Compound 5]	< 150 nM	< 150 nM
C=CC1C[C@]1(NC(=O)[C@@H]1C[C@@H](Oc2cc(-c3ccccc3)nc3cc(OC)ccc23)CN1C(=O)[C@@H](NC(=O)OC)C(C)(C)C)C(=O)NS(=O)(=O)N1CCCC1 (stereo partly drawn) [Compound 6]	150 to 1500 nM	< 150 nM
C=CC1C[C@]1(NC(=O)[C@@H]1C[C@@H](Oc2cc(-c3ccccc3)nc3cc(OC)ccc23)CN1C(=O)[C@@H](NC(=O)OC)C(C)(C)C)C(=O)NS(=O)(=O)N(C)C(C)C (stereo partly drawn) [Compound 7]	150 to 1500 nM	< 150 nM
C=CC1C[C@]1(NC(=O)[C@@H]1C[C@@H](Oc2cc(-c3ccccc3)nc3cc(OC)ccc23)CN1C(=O)[C@@H](NC(=O)OC)C(C)(C)C)C(=O)NS(=O)(=O)N1CCCCC1 (stereo partly drawn) [Compound 10]	150 to 1500 nM	< 150 nM
C=CC1C[C@]1(NC(=O)[C@@H]1C[C@@H](Oc2cc(-c3ccccc3)nc3cc(OC)ccc23)CN1C(=O)[C@@H](NC(=O)OC)C(C)(C)C)C(=O)NS(=O)(=O)N1CCCCO1 (stereo partly drawn) [Compound 11]	> 1500 nM	150 to 1500 nM
C=CC1C[C@]1(NC(=O)[C@@H]1C[C@@H](Oc2cc(-c3ccccc3)nc3cc(OC)ccc23)CN1C(=O)[C@@H](NC(=O)OC)C(C)(C)C)C(=O)NS(=O)(=O)N1CCOCC1 (stereo partly drawn) [Compound 12]		150 to 1500 nM
C=CC1C[C@]1(NC(=O)[C@@H]1C[C@@H](Oc2cc(-c3ccccc3)nc3cc(OC)ccc23)CN1C(=O)[C@@H](NC(=O)OC)C(C)(C)C)C(=O)NS(=O)(=O)N1CCN(C)CC1 (stereo partly drawn) [Compound 13]	> 1500 nM	150 to 1500 nM
C=CC1C[C@]1(NC(=O)[C@@H]1C[C@@H](Oc2cc(-c3ccccc3)nc3cc(OC)ccc23)CN1C(=O)[C@@H](NC(=O)OC(C)(C)C)C(C)(C)C)C(=O)NS(=O)(=O)N(C)CC (stereo partly drawn) [Compound 14]	< 150 nM	< 150 nM
C=CC1C[C@]1(NC(=O)[C@@H]1C[C@@H](Oc2cc(-c3ccccc3)nc3cc(OC)ccc23)CN1C(=O)[C@@H](NC(=O)OC(C)(C)C)C(C)(C)C)C(=O)NS(=O)(=O)N(C)C (stereo partly drawn) [Compound 15]	< 150 nM	< 150 nM
C=CC1C[C@]1(NC(=O)[C@@H]1C[C@@H](Oc2cc(-c3ccccc3)nc3cc(OC)ccc23)CN1C(=O)[C@@H](NC(=O)OC(C)(C)C)C(C)(C)C)C(=O)NS(=O)(=O)N(C)c1ccccc1 (stereo partly drawn) [Compound 16]	< 150 nM	< 150 nM
C=CC1C[C@]1(NC(=O)[C@@H]1C[C@@H](Oc2nccc3cc(OC)ccc23)CN1C(=O)[C@@H](NC(=O)OC(C)(C)C)C(C)(C)C)C(=O)NS(=O)(=O)N(C)C (stereo partly drawn) [Compound 17]	150 to 1500 nM	< 150 nM
C=CC1C[C@]1(NC(=O)[C@@H]1C[C@@H](Oc2nccc3cc(OC)ccc23)CN1C(=O)[C@@H](NC(=O)OC(C)(C)C)C(C)(C)C)C(=O)NS(=O)(=O)N1CCCC1 (stereo partly drawn) [Compound 18]	< 150 nM	< 150 nM
C=CC1C[C@]1(NC(=O)[C@@H]1C[C@@H](Oc2nccc3cc(OC)ccc23)CN1C(=O)[C@@H](NC(=O)OC(C)(C)C)C(C)(C)C)C(=O)NS(=O)(=O)N(C)CC (stereo partly drawn) [Compound 19]	< 150 nM	< 150 nM
C=CC1C[C@]1(NC(=O)[C@@H]1C[C@@H](Oc2nccc3cc(OC)ccc23)CN1C(=O)[C@@H](NC(=O)OC(C)(C)C)C(C)(C)C)C(=O)NS(=O)(=O)N(C)c1ccccc1 (stereo partly drawn) [Compound 20]	< 150 nM	< 150 nM
C=CC1C[C@]1(NC(=O)[C@@H]1C[C@@H](Oc2nccc3cc(OC)ccc23)CN1C(=O)[C@@H](NC(=O)OC(C)(C)C)C(C)(C)C)C(=O)NS(=O)(=O)N(C)C(C)C (stereo partly drawn) [Compound 21]	150 to 1500 nM	150 to 1500 nM
C=CC1C[C@]1(NC(=O)[C@@H]1C[C@@H](Oc2nccc3ccccc23)CN1C(=O)[C@@H](NC(=O)OC(C)(C)C)C(C)(C)C)C(=O)NS(=O)(=O)N(C)C(C)C (stereo partly drawn) [Compound 22]		150 to 1500 nM
C=CC1C[C@]1(NC(=O)[C@@H]1C[C@@H](Oc2nc(-c3ccncc3)cc3ccccc23)CN1C(=O)[C@@H](NC(=O)OC(C)(C)C)C(C)(C)C)C(=O)NS(=O)(=O)N(C)C (stereo partly drawn) [Compound 23]	< 150 nM	< 150 nM
